From publication PMC5035920, “Exploring functional roles of TRPV1 intracellular domains with unstructured peptide-insertion screening” (Scientific Reports, 2016)

Legend:
mTRPV1 (mouse TRPV1) [1] = molecular target: T1, mTRPV1 (mouse TRPV1) (Mus musculus, UniProt Q704Y3, INS430GGG); assay: patch-clamp of transfected HEK293 cells, concentration-response, Hill fit; assay type: cell-based
T1 construct: full-length mTRPV1 cDNA in pEYFP-N3, C-terminal eYFP fusion, transiently expressed in HEK293 cells; homotetramer

mTRPV1 (mouse TRPV1) [2] = molecular target: T2, mTRPV1 (mouse TRPV1) (Mus musculus, UniProt Q704Y3); assay: as above; assay type: cell-based
T2 construct: full-length mTRPV1 cDNA in pEYFP-N3, C-terminal eYFP fusion, transiently expressed in HEK293 cells; homotetramer
T2 sequence (Q704Y3 whole entry, the tested form may be a part): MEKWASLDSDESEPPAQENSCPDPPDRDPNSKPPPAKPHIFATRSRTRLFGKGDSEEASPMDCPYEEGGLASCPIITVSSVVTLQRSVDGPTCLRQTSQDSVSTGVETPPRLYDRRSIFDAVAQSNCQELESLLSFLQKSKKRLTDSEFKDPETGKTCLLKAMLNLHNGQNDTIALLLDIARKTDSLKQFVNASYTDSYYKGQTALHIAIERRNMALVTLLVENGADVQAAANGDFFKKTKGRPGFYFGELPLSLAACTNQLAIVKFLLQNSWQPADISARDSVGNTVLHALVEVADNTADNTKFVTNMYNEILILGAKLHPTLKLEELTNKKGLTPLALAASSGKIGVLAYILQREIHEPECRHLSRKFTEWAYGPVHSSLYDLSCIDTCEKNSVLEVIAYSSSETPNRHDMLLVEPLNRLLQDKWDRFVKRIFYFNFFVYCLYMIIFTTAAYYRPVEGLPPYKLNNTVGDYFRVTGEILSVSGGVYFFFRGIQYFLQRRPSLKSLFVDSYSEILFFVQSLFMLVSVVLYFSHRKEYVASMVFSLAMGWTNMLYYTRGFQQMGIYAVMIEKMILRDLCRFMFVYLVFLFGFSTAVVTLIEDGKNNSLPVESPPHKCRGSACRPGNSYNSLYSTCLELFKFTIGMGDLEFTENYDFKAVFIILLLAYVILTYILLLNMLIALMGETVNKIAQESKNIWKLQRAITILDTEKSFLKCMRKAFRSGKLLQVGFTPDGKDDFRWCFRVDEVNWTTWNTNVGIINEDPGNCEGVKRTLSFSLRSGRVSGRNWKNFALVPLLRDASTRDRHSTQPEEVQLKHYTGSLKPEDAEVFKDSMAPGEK

T1 sequence (Q704Y3 with tags, fused parts or gaps INS430GGG): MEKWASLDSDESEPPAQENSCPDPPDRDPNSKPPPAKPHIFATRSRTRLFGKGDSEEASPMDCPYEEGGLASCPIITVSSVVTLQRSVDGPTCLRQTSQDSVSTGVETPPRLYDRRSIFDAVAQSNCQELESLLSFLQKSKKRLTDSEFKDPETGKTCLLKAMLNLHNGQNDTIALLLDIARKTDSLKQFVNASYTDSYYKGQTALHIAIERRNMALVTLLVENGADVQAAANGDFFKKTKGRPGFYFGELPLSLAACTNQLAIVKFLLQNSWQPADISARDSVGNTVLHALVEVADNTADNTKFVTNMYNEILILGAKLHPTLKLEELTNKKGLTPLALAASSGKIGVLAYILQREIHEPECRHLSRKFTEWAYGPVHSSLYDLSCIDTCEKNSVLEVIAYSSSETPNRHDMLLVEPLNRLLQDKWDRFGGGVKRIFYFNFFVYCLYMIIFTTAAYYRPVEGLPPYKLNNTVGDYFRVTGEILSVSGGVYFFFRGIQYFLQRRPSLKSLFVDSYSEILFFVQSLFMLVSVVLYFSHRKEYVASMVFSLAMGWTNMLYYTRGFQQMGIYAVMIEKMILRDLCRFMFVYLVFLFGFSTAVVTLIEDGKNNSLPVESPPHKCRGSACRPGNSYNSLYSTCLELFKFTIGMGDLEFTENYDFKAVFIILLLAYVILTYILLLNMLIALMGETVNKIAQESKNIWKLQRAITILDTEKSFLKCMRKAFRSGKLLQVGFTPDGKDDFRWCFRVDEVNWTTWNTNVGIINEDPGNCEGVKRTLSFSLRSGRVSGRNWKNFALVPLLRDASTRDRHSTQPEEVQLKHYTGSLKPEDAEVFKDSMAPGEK

COc1cc(CNC(=O)CCCC/C=C/C(C)C)ccc1O [capsaicin]
EC50 (mTRPV1 (mouse TRPV1) [1]): 70 ± 30 nM
EC50 (mTRPV1 (mouse TRPV1) [2]): 150 ± 20 nM
